Results reported in ChEMBL document CHEMBL4184331 (J Med Chem, 2018).

Assays:
Glucocorticoid receptor [1] = target: T1, Glucocorticoid receptor (Homo sapiens, UniProt P04150)
T1 sequence (P04150 whole entry): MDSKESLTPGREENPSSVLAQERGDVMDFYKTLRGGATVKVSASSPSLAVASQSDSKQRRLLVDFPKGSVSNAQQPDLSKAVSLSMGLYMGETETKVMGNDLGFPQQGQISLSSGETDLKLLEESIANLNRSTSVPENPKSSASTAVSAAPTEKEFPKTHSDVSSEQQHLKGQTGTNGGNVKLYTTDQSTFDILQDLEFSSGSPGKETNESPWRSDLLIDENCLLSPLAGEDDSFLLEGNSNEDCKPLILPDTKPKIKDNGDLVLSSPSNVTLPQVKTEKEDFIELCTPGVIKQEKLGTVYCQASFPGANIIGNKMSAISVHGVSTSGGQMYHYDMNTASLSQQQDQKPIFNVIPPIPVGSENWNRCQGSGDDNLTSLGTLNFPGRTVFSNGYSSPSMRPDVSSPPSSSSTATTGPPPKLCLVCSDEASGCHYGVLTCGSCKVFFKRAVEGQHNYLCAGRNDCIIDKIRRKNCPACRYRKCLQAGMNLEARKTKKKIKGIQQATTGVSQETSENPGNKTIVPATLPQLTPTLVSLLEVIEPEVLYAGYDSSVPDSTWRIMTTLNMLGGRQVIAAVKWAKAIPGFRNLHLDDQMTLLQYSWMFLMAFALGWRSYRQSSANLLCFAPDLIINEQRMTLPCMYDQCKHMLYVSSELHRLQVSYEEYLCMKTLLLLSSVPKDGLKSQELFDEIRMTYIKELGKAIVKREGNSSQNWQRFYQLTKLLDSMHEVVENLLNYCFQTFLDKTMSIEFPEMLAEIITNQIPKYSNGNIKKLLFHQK
Description: Induction of nuclear translocation of human recombinant ProLabel-tagged glucocorticoid receptor expressed in CHO-K1 cells after 3 hrs by luminescence method

[2] = target: T2, Mineralocorticoid receptor (Homo sapiens, UniProt P08235)
T2 sequence (P08235 whole entry): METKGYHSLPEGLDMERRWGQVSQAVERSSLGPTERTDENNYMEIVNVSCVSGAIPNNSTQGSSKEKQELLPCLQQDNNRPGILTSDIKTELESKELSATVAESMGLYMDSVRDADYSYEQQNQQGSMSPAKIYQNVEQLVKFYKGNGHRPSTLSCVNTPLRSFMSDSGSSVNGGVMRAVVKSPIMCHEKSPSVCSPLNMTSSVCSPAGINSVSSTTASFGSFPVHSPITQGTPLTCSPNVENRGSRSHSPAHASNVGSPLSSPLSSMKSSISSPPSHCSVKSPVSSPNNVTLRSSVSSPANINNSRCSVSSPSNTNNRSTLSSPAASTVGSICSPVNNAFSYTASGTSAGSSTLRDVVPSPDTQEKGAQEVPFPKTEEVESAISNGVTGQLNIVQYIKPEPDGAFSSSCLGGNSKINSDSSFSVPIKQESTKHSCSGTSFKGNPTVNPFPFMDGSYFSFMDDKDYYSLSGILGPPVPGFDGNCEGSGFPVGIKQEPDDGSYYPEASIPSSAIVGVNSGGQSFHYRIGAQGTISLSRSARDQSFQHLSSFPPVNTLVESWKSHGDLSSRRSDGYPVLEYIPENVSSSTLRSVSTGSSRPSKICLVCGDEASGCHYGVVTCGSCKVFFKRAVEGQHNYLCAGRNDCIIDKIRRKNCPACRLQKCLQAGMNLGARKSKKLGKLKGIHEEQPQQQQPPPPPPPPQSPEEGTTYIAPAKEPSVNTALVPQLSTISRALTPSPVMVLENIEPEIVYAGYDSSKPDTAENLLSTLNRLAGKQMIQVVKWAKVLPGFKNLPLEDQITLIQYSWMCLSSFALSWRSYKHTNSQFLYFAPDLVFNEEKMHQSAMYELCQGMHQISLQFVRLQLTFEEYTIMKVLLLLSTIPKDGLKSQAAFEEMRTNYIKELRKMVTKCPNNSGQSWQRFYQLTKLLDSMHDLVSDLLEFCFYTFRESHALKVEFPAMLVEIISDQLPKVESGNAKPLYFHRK
Description: Induction of nuclear translocation of human recombinant ProLabel-tagged mineralocorticoid receptor expressed in CHO-K1 cells after 3 hrs by luminescence method

RAW264.7 = test: cells; settings: Mus musculus
Description: Antiinflammatory activity in mouse RAW264.7 cells assessed as inhibition of LPS-induced nitric oxide release preincubated for 15 mins followed by LPS challenge measured after 18 hrs by Griess assay

Glucocorticoid receptor [3] = target: T1, Glucocorticoid receptor; test: biochemical
Description: Displacement of [3H]dexamethasone from human recombinant glucocorticoid receptor expressed in insect cells after 24 hrs by scintillation proximity assay

Description for physchem: Dissociation constant, pKa of the compound

SMILES | EC50 (Glucocorticoid receptor [1]) | EC50 [2] | IC50 (RAW264.7) | Ki (Glucocorticoid receptor [3]) | pKa (physchem)
C[C@]12C=CC(=O)C=C1[C@@H](F)C[C@H]1[C@@H]3C[C@H]4CN(Cc5cccc(Cl)c5)C[C@@]4(C(=O)SCF)[C@@]3(C)C[C@H](O)[C@@]12F | 45 nM | > 3000 nM |  |  | 
C[C@]12C=CC(=O)C=C1[C@@H](F)C[C@H]1[C@@H]3C[C@H]4CN(S(=O)(=O)c5cccs5)C[C@@]4(C(=O)CO)[C@@]3(C)C[C@H](O)[C@@]12F | 7.4 nM |  | 3.68 nM | 0.66 nM | 
C[C@]12C=CC(=O)C=C1[C@@H](F)C[C@H]1[C@@H]3C[C@H]4CN(c5ccc(Cl)cc5)C[C@@]4(C(=O)CO)[C@@]3(C)C[C@H](O)[C@@]12F | 8.5 nM |  | 0.66 nM | 0.67 nM | 4.42
C[C@]12C=CC(=O)C=C1[C@@H](F)C[C@H]1[C@@H]3C[C@H]4CN(Cc5ccc(Cl)cc5)C[C@@]4(C(=O)CO)[C@@]3(C)C[C@H](O)[C@@]12F | 1.3 nM |  | 0.25 nM |  | 6.72
C[C@]12C=CC(=O)C=C1[C@@H](F)C[C@H]1[C@@H]3C[C@H]4CN(c5cccc(Cl)c5)C[C@@]4(C(=O)CO)[C@@]3(C)C[C@H](O)[C@@]12F | 5.8 nM |  | 0.4 nM | 0.52 nM | 4.06
C[C@]12C=CC(=O)C=C1[C@@H](F)C[C@H]1[C@@H]3C[C@H]4CN(CC5CC5)C[C@@]4(C(=O)CO)[C@@]3(C)C[C@H](O)[C@@]12F | 15.2 nM |  |  |  | 7.83
C[C@]12C=CC(=O)C=C1[C@@H](F)C[C@H]1[C@@H]3C[C@H]4CN(Cc5ccccc5)C[C@@]4(C(=O)CF)[C@@]3(C)C[C@H](O)[C@@]12F | 3.4 nM |  |  | 0.52 nM | 6.87
C[C@]12C=CC(=O)C=C1[C@@H](F)C[C@H]1[C@@H]3C[C@H]4CN(Cc5ccccc5)C[C@@]4(C(=O)CO)[C@@]3(C)C[C@H](O)[C@@]12F | 1.7 nM |  | 0.15 nM | 0.66 nM | 6.96
C[C@]12C=CC(=O)C=C1[C@@H](F)C[C@H]1[C@@H]3C[C@H]4CN(C(=O)OCc5ccccc5)C[C@@]4(C(=O)CO)[C@@]3(C)C[C@H](O)[C@@]12F | 44.1 nM |  |  | 0.66 nM | 
COC(=O)[C@@]12CN(Cc3ccccc3)C[C@@H]1C[C@H]1[C@@H]3C[C@H](F)C4=CC(=O)C=C[C@]4(C)[C@@]3(F)[C@@H](O)C[C@@]12C | 5.7 nM |  |  | 0.71 nM | 7.12
C[C@]12C=CC(=O)C=C1[C@@H](F)C[C@H]1[C@@H]3C[C@H]4CN(Cc5ccccc5)C[C@@]4(C(=O)NCc4ccccc4)[C@@]3(C)C[C@H](O)[C@@]12F | 50 nM |  |  | 9.8 nM | 7.05
C[C@]12C=CC(=O)C=C1[C@@H](F)C[C@H]1[C@@H]3C[C@H]4CN(Cc5ccc6ccccc6n5)C[C@@]4(C(=O)CO)[C@@]3(C)C[C@H](O)[C@@]12F | 31.2 nM |  | 11.9 nM | 0.71 nM | 3.42
CN(C)C(=O)[C@@]12CN(Cc3ccccc3)C[C@@H]1C[C@H]1[C@@H]3C[C@H](F)C4=CC(=O)C=C[C@]4(C)[C@@]3(F)[C@@H](O)C[C@@]12C | 40.3 nM | > 3000 nM |  | 1.1 nM | 7.3
C[C@]12C=CC(=O)C=C1[C@@H](F)C[C@H]1[C@@H]3C[C@H]4CN(c5ccccc5)C[C@@]4(C(=O)CO)[C@@]3(C)C[C@H](O)[C@@]12F | 1.3 nM |  | 0.34 nM | 0.39 nM | 8.82
C[C@]12C=CC(=O)C=C1[C@@H](F)C[C@H]1[C@@H]3C[C@H]4CN(Cc5cccnc5)C[C@@]4(C(=O)CO)[C@@]3(C)C[C@H](O)[C@@]12F | 63.9 nM |  |  |  | 4.11
CC(C)CCN1C[C@@H]2C[C@H]3[C@@H]4C[C@H](F)C5=CC(=O)C=C[C@]5(C)[C@@]4(F)[C@@H](O)C[C@]3(C)[C@]2(C(=O)SCF)C1 | 57 nM | > 3000 nM |  | 4.8 nM | 
Cc1cccc(CN2C[C@@H]3C[C@H]4[C@@H]5C[C@H](F)C6=CC(=O)C=C[C@]6(C)[C@@]5(F)[C@@H](O)C[C@]4(C)[C@]3(C(=O)CO)C2)c1 | 11.3 nM |  | 0.3 nM | 0.52 nM | 7.27
Cc1ccc(CN2C[C@@H]3C[C@H]4[C@@H]5C[C@H](F)C6=CC(=O)C=C[C@]6(C)[C@@]5(F)[C@@H](O)C[C@]4(C)[C@]3(C(=O)CO)C2)cc1 | 8.4 nM |  | 0.16 nM | 0.52 nM | 7.11
CN1C[C@@H]2C[C@H]3[C@@H]4C[C@H](F)C5=CC(=O)C=C[C@]5(C)[C@@]4(F)[C@@H](O)C[C@]3(C)[C@]2(C(=O)CO)C1 | 54.9 nM |  |  |  | 7.91
C[C@]12C=CC(=O)C=C1[C@@H](F)C[C@H]1[C@@H]3C[C@H]4CN(Cc5ccc(CSc6ccc(O)cc6)cc5)C[C@@]4(C(=O)CO)[C@@]3(C)C[C@H](O)[C@@]12F | 2.1 nM | 1.6 nM | 0.44 nM | 0.62 nM | 6.95
C[C@]12C=CC(=O)C=C1[C@@H](F)C[C@H]1[C@@H]3C[C@H]4CN(C(=O)c5ccccc5)C[C@@]4(C(=O)CO)[C@@]3(C)C[C@H](O)[C@@]12F | 248 nM |  |  |  | 
CC(=O)[C@@]12CN(Cc3cccc(Cl)c3)C[C@@H]1C[C@H]1[C@@H]3C[C@H](F)C4=CC(=O)C=C[C@]4(C)[C@@]3(F)[C@@H](O)C[C@@]12C | 7.7 nM |  | 1.4 nM | 0.57 nM | 6.9
C[C@]12C=CC(=O)C=C1[C@@H](F)C[C@H]1[C@@H]3C[C@H]4CN(Cc5cccc(Cl)c5)C[C@@]4(C(=O)OCF)[C@@]3(C)C[C@H](O)[C@@]12F | 20.8 nM |  |  | 0.57 nM | 6.58
CC(C)CCN1C[C@@H]2C[C@H]3[C@@H]4C[C@H](F)C5=CC(=O)C=C[C@]5(C)[C@@]4(F)[C@@H](O)C[C@]3(C)[C@]2(C(=O)CO)C1 | 3.4 nM |  | 0.22 nM | 1.9 nM | 7.98
C[C@]12C=CC(=O)C=C1[C@@H](F)C[C@H]1[C@@H]3C[C@H]4CN(c5ccccc5)C[C@@]4(C(=O)CF)[C@@]3(C)C[C@H](O)[C@@]12F | 3.2 nM |  | 1.38 nM | 0.52 nM | 8.74
